# Assay results taken from US20040171093A1, “Methods for detecting deficient cellular membrane tightly bound magnesium for disease diagnoses” (priority 1999, published 2004).
# “And” between values parts separate entries of the source, which are not always exact repeats. Equal values may be shown once. “Also recorded” adds a separate entry of the source. Ends that are not written are not given here.
# Columns and labels:
# [1] = system: magnesium deficient erythrocytes; assay: Promotion of magnesium binding in magnesium depleted erythrocyte membranes (in vitro screen); type: cell-based, human; details: for Magnesium Binding: aged Mg-deficient human erythrocytes incubated in 5 mL medium, 37° C., three hours, peptide amount equimolar to 6 ugm Substance P, quadruplet mean (n) or duplicate values; for measurable binding of magnesium ions to the erythrocyte membrane (in words): uptake in excess of that with KRPG alone; for approximate ratios of binding activities: magnesium uptake in excess of KRPG alone, normal plasma = 1; for activity relative to Substance P in promoting magnesium binding / correcting the MgBD: equal molar amounts tested
# Procedure: In order to identify those substances which promote binding of magnesium ion to plasma membranes (tightly bound magnesium ion) and that ameliorate or correct the magnesium binding defect, a deficit of membrane tightly bound magnesium was created experimentally in erythrocytes without the magnesium binding defect. Human erythrocytes were obtained from blood samples that had been drawn two days previously and kept for varying periods of time at room temperature, or at approximately 5° C. Preferred results were obtained with those samples in which either sodium citrate or sodium heparin was the anticoagulant. The length of time held and time held before moving to room temperature or 5° C is not believed to be critical. Although it was possible to create the MgBD in cells held as above, more reproducible results would be expected if fresh drawn blood were to be used.
# The following procedure was employed to generate a deficit of plasma membrane tightly bound magnesium ion in the erythrocytes. Art recognized adaptations of this procedure can be used for generation of a deficit in other somatic cells, such as from urine or buccal cells. Samples of blood described above were kept at room temperature overnight and then pooled in a beaker placed in crushed ice and the blood was stirred slowly to collect any fibrin that may have formed. The blood was then centrifuged (600×g, 15 minutes) at 5° C. and the plasma layer removed by aspiration. Residual plasma was removed from the cells by suspending them twice in equal volumes of cold normal saline and then twice in equal volumes of cold Alsever's solution (trisodium citrate 32.5 mM, citric acid 2.7mM, D-glucose 114 mM, NaCl 137 mM, pH 6.1). Finally, the washed cells were suspended again in an equal volume of the same Alsever's solution to which approximately 1.25 mg/ml of sodium deoxycholate was added. This suspension was filtered through cheese cloth and kept at 4° C. with gently mixing once each day. Although the Alsever's plus sodium deoxycholate solution is a preferred example of a holding solution, any cell stabilizing buffer plus sodium deoxycholate may be utilized in the practice of the invention.
# The concentration of magnesium ion tightly bound to the erythrocyte membranes was determined by using 5 mL portions of the approximately two day old blood sample and the stored erythrocyte suspension. After these portions were centrifuged as above and the supernatant fluids aspirated, the residues of cells were suspended four times in 15 mL portions of cold hemolyzing buffer (Tris Tris HCl 5 mM, sucrose 14 mM, pH 7.4) and centrifuged (15,000×g, 15 minutes). The supernatant fluids were removed by gentle aspiration. The decanting procedure was repeated as necessary to remove all of the dark red residue (Example 1). The penultimate residue was resuspended by gently pouring the hemolyzing buffer onto the residue and decanting the readily suspended cell membranes from the small, dark red, dense residue which adhered to the centrifuge tube. The final, nearly colorless residue of membranes was transferred and brought to a total volume of 25 mL in a volumetric flask using the hemolyzing buffer. These preparations of erythrocyte membranes were stored at 4° C. until the total protein contents were determined by the Bicinchoninic Acid procedure and the total magnesium contents determined by atomic absorption spectroscopy. From these values the concentrations of tightly bound magnesium in the cell membranes were expressed as nanograms of magnesium per 0.50 mg of membrane protein. This determination of the magnesium binding was repeated each day or so until the level of binding first ceased to decrease.
# Preparations of aged erythrocytes in which the MgBD has been developed were used as soon as possible in incubations with normal blood plasma, and other magnesium containing fluids, in search of substances which could correct the MgBD (Example 7). […]
# [2] = system: normotensive subjects; details: Qu and Stuesse, 1990; cited from earlier work
# [3] = system: SS/Jr rats; assay: Systolic blood pressure after i.v. tetrapeptide, tail-cuff method, hypertensive rats; type: in vivo, rat
# Procedure: (§1) In this procedure the systolic blood pressure was measured in conscious animals by using the photoelectric, tail-cuff, compression method as follows. The animal was placed in an incubator at 40° for twenty minutes in order to elevate its body temperature. The cuff, which was placed around the tail, included sensor which provided the pressure signal which was recorded onto a chart. After the pre-injection pressure was recorded, the animal was immediately injected through the tail vein with 168 uL of a freshly prepared solution of the tetrapeptide (SEQ ID NO:2) in normal saline.
# (§2) In the initial experiments, the blood pressure was recorded at 5, 10, 30, 60 and 300 minutes after the administration of the tetrapeptide. There was no further decrease in the blood pressure after 10 minutes and the blood pressure returned to the pre-injection level within 60 minutes. Therefore, in further experiments, the blood pressure of each animal was recorded 10 minutes after the injection of the tetrapeptide.
# [4] = system: Sprague-Dawley rats; assay: Systolic blood pressure after i.v. peptide, tail-cuff method, normotensive control rats; type: in vivo, rat
# Procedure: as §1, §2
# [5] = system: SS/Jr rats; assay: Tightly bound magnesium in erythrocyte membranes after i.v. tetrapeptide, hypertensive rats; type: in vivo, rat; details: intravenous administration
# Procedure: (§3) The rats were allowed to rest for one day and then one-half of the SS/Jr and one-half of the Sprague-Dawley rats were injected as above with 3.0 ugm/kg of the tetrapeptide (SEQ ID NO:2). All of the rats were sacrificed by decapitation 30 minutes later and the blood from each rat was collected in a centrifuge tube containing sufficient heparin to prevent clotting. The blood samples were centrifuged (1,000×g, 20 minutes) at 5° C. and the individual plasma layers were removed and frozen. The residues of erythrocytes were suspended three times in cold, normal saline and then were hemolyzed by the addition of 15 mL of cold hemolyzing buffer (10 mM Tris Tris HCl, pH 7.4). This buffer was then used in the isolation of the erythrocyte membranes from these hemolysates and in the determination of their total magnesium and protein contents as described above.
# [6] = system: Sprague-Dawley rats; assay: Tightly bound magnesium in erythrocyte membranes after i.v. tetrapeptide, normotensive control rats; type: in vivo, rat; details: intravenous administration
# Procedure: as §3
# [7] = system: SS/Jr rats; assay: Plasma glucose (anthrone method) after i.v. tetrapeptide, SS/Jr rats; type: in vivo, rat; details: 3.0 ugm/kg i.v., 30 minutes
# Procedure: as §3
# (§4) The glucose concentrations in the reserved plasma samples were determined by the anthrone method (Rendina, 1971). The concentrations in the injected SS/Jr rats were not different from those of the SS/Jr rats which were not injected with the tetrapeptide. This was also the case with the Sprague-Dawley control rats. Thus, the values of the SS/Jr rats were combined and compared with the combined, control values of the Sprague-Dawley rats as follows: 149.2±7.5 (15) vs. 100.7±11.2 (4) mg/100 mL., P<0.01. […]
# [8] = system: Sprague-Dawley rats; assay: Plasma glucose (anthrone method) after i.v. tetrapeptide, Sprague-Dawley rats; type: in vivo, rat; details: 3.0 ugm/kg i.v., 30 minutes
# Procedure: as §3, §4
# [9] = system: erythrocytes from essential hypertensive patients; assay: Remediation of magnesium binding defect in vitro, erythrocytes from essential hypertensive patients; type: cell-based, human; details: incubated for 3 hrs. at 37° C.
# Procedure: The effect of the tetrapeptide (SEQ ID NO:2) and pentapeptide (SEQ ID NO:1) on the binding of magnesium by the erythrocyte membrane was ascertained by measuring the magnesium contents of ghosts after the erythrocytes from essential hypertensive patients and normal controls were incubated with one or both of the peptides. For this purpose, two 10 ml samples of heparinized blood from essential hypertensive subjects were utilized. After the plasma was separated from the erythrocytes, the erythrocytes were washed twice with 10 ml of cold erythrocyte wash and the peptides were then added to the erythrocytes from the hypertensive subjects and the mixtures were incubated for 3 hrs. at 37° C., chilled on ice and the erythrocyte ghosts were prepared and analyzed for magnesium and protein as described in Example 1.
Substance,measurable binding of magnesium ions to the erythrocyte membrane (in words) [1],approximate ratios of binding activities [1],binding of magnesium to erythrocyte membranes of hypertensive subjects after incubation (in words) [9],Magnesium Binding [1],activity relative to Substance P in promoting magnesium binding / correcting the MgBD [1],effect on blood pressure of normotensive rats (in words) [4],further results
"1-9 Substance P: commercial preparation of amidated peptide derived from the N-terminal region of Substance P (RPKPQQFFG-NH2; UniProt P20366 58-66, looked up, fragment) [reference compound]",no measurable activity,,,500 Nanograms of magnesium per 0.50 mg of membrane protein and 490 Nanograms of magnesium per 0.50 mg of membrane protein,,,
Phe-Phe-Gly-Leu-Met-NH2 (FFGLM-NH2; listed as Homo sapiens) [pentapeptide],promoted measurable binding,~3.7,returned to normal,,about four times as active as Substance P; also recorded: significantly more active than Substance P; also recorded: several fold more active than Substance P,had no effect on systolic blood pressure,Magnesium Binding ([1]; listed as 7-11 Substance P): 886 Nanograms of magnesium per 0.50 mg of membrane protein and 866 Nanograms of magnesium per 0.50 mg of membrane protein

# Second part, led by results:
measurable binding of magnesium ions to the erythrocyte membrane (in words) [1],approximate ratios of binding activities [1],binding of magnesium to erythrocyte membranes of hypertensive subjects after incubation (in words) [9],Substance,Magnesium Binding [1],activity relative to Substance P in promoting magnesium binding / correcting the MgBD [1],effect on blood pressure of normotensive rats (in words) [4],further results
no measurable activity,,,"9-11 Substance P: commercial preparation of amidated peptide derived from the C-terminal region of Substance P (Gly-Leu-Met-NH2; UniProt P20366 66-68, looked up, fragment) [reference compound]",546 Nanograms of magnesium per 0.50 mg of membrane protein and 510 Nanograms of magnesium per 0.50 mg of membrane protein,,,
promoted measurable binding,~1.1,,"Arg-Pro-Lys-Pro-Gln-Gln-Phe-Phe-Gly-Leu-Met-NH2 [Substance P, reference compound]",,,,effect of intravenously injected Substance P on blood pressure [2]: the reduction in blood pressure resulted in lower than normal values
promoted measurable binding,~4.6,returned to normal,Phe-Gly-Leu-Met-NH2 (FGLM-NH2; listed as Homo sapiens) [tetrapeptide],,about four times as active as Substance P; also recorded: significantly more active than Substance P; also recorded: several fold more active than Substance P,unaffected; also recorded: had no influence; also recorded: did not affect the blood pressures; also recorded: had no effect on systolic blood pressure,"Magnesium Binding ([1]; listed as 8-11 Substance P): 968 Nanograms of magnesium per 0.50 mg of membrane protein and 954 Nanograms of magnesium per 0.50 mg of membrane protein; effect on blood pressure of hypertensive rats (in words) ([3]; SS/Jr rats, intravenous administration): fallen to control values; also recorded: corrected; also recorded: reduced the hypertensive blood pressure of the SS/Jr rats to the normal blood pressure of their controls; also recorded: reduced its systolic blood pressure from an elevated value of 210 mm Hg to the control value; time for blood pressure to fall to control values / no further decrease ([3]; after i.v. injection): ≤ 10 min; time for blood pressure to return to the pre-injection level ([3]; after i.v. injection): ≤ 60 min; correction of the magnesium binding defect in erythrocytes (in words) [5]: corrected; also recorded: corrects the magnesium binding defect; effect on erythrocyte magnesium binding of control rats (in words) [6]: unaffected; also recorded: had no influence; plasma glucose concentration, injected versus not injected [7]: not different; plasma glucose concentration, injected versus not injected [8]: not different"
